# Where two headings read alike, the source gives them in different places.
# Experiments:
# [1] = tested on: THP-1 monocytes; assay: Monocyte chemotaxis of metabolically primed THP-1 monocytes towards MCP-1 (modified Boyden chamber); format: cell-based, Human; conditions: for monocyte chemotaxis: primed with glucose and LDL, 1 nM MCP-1, FIG. 2; for normal or baseline responses to chemokines: unprimed, non-pathogenic chemotaxis
# Description: (§1) Chemotaxis assays are performed using 48-well, modified Boyden chambers (NeuroProbe, Gaithersburg, Md.) as described previously (1). Briefly, monocytes are primed with glucose and LDL in the presence of UA, 23-OHUA or vehicle (0.1% DMSO). Cells are loaded into upper wells of the chemotaxis chamber. Lower wells contain cell media with 1 nM MCP-1 (R&D Systems, Minneapolic, Minn.) or vehicle. A 5 μm polyvinyl pyrrolidone-free polycarbonate filter membrane is layered between the upper and lower chambers, and the chamber is incubated for 1.5 h for THP-1 monocytes at 37° C. and 5% CO2. The membrane is washed and cells removed from the upper side of the filter and fixed with methanol. Transmigrated are stained with 1 μM propidium iodide. Fluorescence intensity, which correlates with cell number is quantified with KODAK Image Station 4000MM (Carestream, Rochester, N.Y.).
# Cell Culture/Priming. Human monocytic THP-1 cells (ATCC) were cultured in THP-1 medium (RPMI 1640, 5 mM glucose, 10% fetal bovine serum (FBS), 2% glutamax, 1% penicillin/streptomycin, 1% HEPES, 0.1% β-mercaptoethanol). Cells are spun down at 400 g, 5 minutes at 25° C. and resuspended in media at […]. Following 48 hours at 37° C. and 5% CO2, cells are plated in 12-well cell culture plates. Phytochemicals are solubilized in dimethylsulfoxide (DMSO) and are added to suspended THP-1 cells at concentrations from 0.03 μM to 3 μM. Control cells without phytonutrients are treated with 0.1% DMSO. Cytotoxicity was assessed with a trypan exclusion assay. To induce a metabolically stressed condition (priming), cells were treated with freshly isolated human LDL is added (100 μg/ml) along with D-glucose (20 mM) for 24 hours.
# as §1, with “Chemotaxis. Chemotaxis” for “Chemotaxis”, “(Ullevig et al. Redox Biology. 2014 01/03;2:259-66).” for “(1).”, “islayered” for “is layered”
# [2] = tested on: Nox4; assay: Induction of Nox4 in monocytes under metabolic stress; format: cell-based
# Excerpt: The inventor has elucidated the mechanism through which hypercholesterolemia and hyperglycemia promote monocyte dysfunction. Monocyte dysfunction is induced by metabolic disorders via the pathological induction of Nox4.
# [3] = Solubility / hydrophilicity relative to ursolic acid; format: physicochemical
# [4] = tested on: diabetic atherosclerosis; assay: Dietary supplementation in diabetic mice: monocyte dysfunction, macrophage recruitment, atherosclerosis; format: in vivo
hydrophilicity relative to UA [3],solubility compared with ursolic acid [3],Structure (SMILES),monocyte priming by metabolic stress (hypersensitization to chemokine-induced activation) [1],monocyte chemotaxis [1],normal or baseline responses to chemokines [1],induction of Nox4 [2],monocyte dysfunction [2],atherosclerosis [4],monocyte dysfunction and macrophage recruitment [4],atherosclerosis ([4]; listed as ursolic acid)
more hydrophilic,more soluble,"CC1CCC2(C(=O)O)CCC3(C)C(=CCC4C5(C)CCC(O)C(C)(CO)C5CCC43C)C2C1C (stereo not drawn) [23-OH UA, 3β, 23-dihydroxyurs-12-en-28oic acid]",inhibit,reducing monocyte chemotaxis,do not block or affect normal or baseline responses to chemokines,prevents the induction of Nox4,prevents,,,
,,"C[C@H]1[C@H](C)CC[C@]2(C(=O)O)CC[C@]3(C)C(=CC[C@@H]4[C@@]5(C)CC[C@H](O)C(C)(C)[C@@H]5CC[C@]43C)[C@H]12 [UA, Ursolic acid]",inhibit,reducing monocyte chemotaxis,do not block or affect normal or baseline responses to chemokines,prevent the induction of Nox4,,potent inhibitor of diabetic atherosclerosis,attenuates monocyte dysfunction and macrophage recruitment,protects diabetic mice from atherosclerosis

# — patent US20180250309A1, “METHODS FOR TREATMENT OF MONOCYTE DYSFUNCTION AND CHRONIC INFLAMMATORY MICRO AND MACRO-VASCULAR DISEASES” (THE BOARD OF REGENTS OF THE UNIVERSITY OF TEXAS SYSTEM, priority 2015, published 2018)
